Consider 5 molecules from patent US10196383B2, “Substituted quinazoline compounds and preparation and uses thereof” (Sunshine Lake Pharma Co., Ltd., priority 2015, dated 2019).

The target of one series is humanized OX1 receptor (Homo sapiens (Human), UniProt O43613). The series is described as follows: Antagonism of humanized OX1 receptor assay (fluorescence detection of free cytoplasmic calcium, 3 nM orexin A). In kind it is cell-based. The settings on record: humanized OX1 receptor transfected CHO cells. As to the method:
The capability of the compounds to the antagonism of humanized OX1 receptor transfected to the Chinese hamster ovary (CHO) cells was evaluated by the method of fluorescence detected free calcium concentration in the cytoplasm. The cells were suspended in a cell culture medium (invitrogen), and then plated to a microplate with an average density of 2×10^4 cells/well. The fluorescent probes (Fluo4 NW, Invitrogen) was mixed with probenecid Hank's balanced salt solution (invitrogen), followed by addition of 20 mM hydroxyethyl piperazine […] (invitrogen) (pH 7.4). The resulting mixture was eventually added to the microwells containing cells. The cells were incubated at 37° C. for 60 min, and then balanced at 22° C. for 15 min. The microplate was placed in a microplate reader (CellLux, PerkinElmer), and the solution of test compound with different concentrations or Hank's balanced salt solution was added. The microplate containing the solution was incubated for 5 min, followed by the addition of 3 nM of orexin A or a balanced salt solution (as control). The changes of fluorescence intensity proportional to the concentration of calcium ions in the cytoplasm were measured.
With the substrate control as 0 and 3 nM orexin A as 100%, inhibition rate of each compound was recorded. Referring to the compound SB334867, several different concentrations were measured in each experiment. Dose-response curves were made, and IC50 value of each compound was calculated.

For another series, the target named is humanized OX2 receptor (Homo sapiens (Human), UniProt O43614). The series is described as follows: Antagonism of humanized OX2 receptor assay (fluorescence detection of free cytoplasmic calcium, 10 nM orexin B). In kind it is cell-based. The settings on record: humanized OX2 receptor transfected HEK-293 cells. How it is done:
The capability of the compounds to antagonism of humanized OX2 receptor transfected by the HEK-293 cells was evaluated by the method of fluorescence detected free calcium concentration in the cytoplasm. The cells were suspended in cell culture medium (invitrogen), and then added to a microplate with an average density of 3×10^4 cells/well. The fluorescent probes (Fluo4 NW, Invitrogen) was mixed with probenecid Hank's balanced salt solution (invitrogen), followed by addition of 20 mM hydroxyethyl piperazine […] (invitrogen) (pH 7.4). The resulting mixture was eventually added to the microwells containing cells. The cells were incubated at 37° C. for 60 min, and then balanced at 22° C. for 15 min. The microplate was placed in a microplate reader (CellLux, PerkinElmer), and the solution of test compound with different concentrations or Hank's balanced salt solution was added. The microplate containing the solution was incubated for 5 min, followed by the addition of 10 nM of orexin B or a balanced salt solution (as control). The changes of fluorescence intensity proportional to the concentration of calcium ions in the cytoplasm were measured.
With the substrate control as 0 and 10 nM of orexin B as 100%, inhibition rate of each compound was recorded. Referring to the compound JNJ10397049, several different concentrations were measured in each experiment. Dose-response curves were made, and IC50 value of each compound was calculated.

Series [1] is described as follows: Pharmacokinetic evaluation with intravenous or oral administration. In kind it is in vivo. To be noted: rats; for AUC(0-inf) / AUC(0-t) / Cmax / Tmax / clearance / Vd: rat, plasma; for Vd: read-out: Vss. As to the method: Pharmacokinetics of the compound of the present invention in rats, dogs or monkeys was evaluated in the present invention. The compounds of this invention were administered with a saline solution of 5% DMSO+5% Kolliphor HS 15+2% (2% HCl)+88% Saline or 10% DMSO+10% Kolliphor HS 15+80% physiological. For intravenous administration, the animals were given a dose of 1 mg/kg, drew blood (0.3 mL) at the time point of 0.083, 0.25, 0.5, 1.0, 2.0, 4.0, 6.0, 8.0 and 24 h, and centrifuged in 3,000 or 4,000 rpm for 10 min. For oral (p.o.) administration, the animals were given a dose of 2.5 mg/kg or 5 mg/kg, drew blood (0.3 mL) at the time point of 0.25, 0.5, 1.0, 2.0, 4.0, 6.0, 8.0 and 24 h, and centrifuged in 3,000 or 4,000 rpm for 10 min. Plasma solution was collected and was stored at −20° C. or […] until LC/MS/MS analysis.

[2] abbreviates: intravenous administration, 1 mg/kg.

humanized OX1 receptor, sequence (O43613 whole entry): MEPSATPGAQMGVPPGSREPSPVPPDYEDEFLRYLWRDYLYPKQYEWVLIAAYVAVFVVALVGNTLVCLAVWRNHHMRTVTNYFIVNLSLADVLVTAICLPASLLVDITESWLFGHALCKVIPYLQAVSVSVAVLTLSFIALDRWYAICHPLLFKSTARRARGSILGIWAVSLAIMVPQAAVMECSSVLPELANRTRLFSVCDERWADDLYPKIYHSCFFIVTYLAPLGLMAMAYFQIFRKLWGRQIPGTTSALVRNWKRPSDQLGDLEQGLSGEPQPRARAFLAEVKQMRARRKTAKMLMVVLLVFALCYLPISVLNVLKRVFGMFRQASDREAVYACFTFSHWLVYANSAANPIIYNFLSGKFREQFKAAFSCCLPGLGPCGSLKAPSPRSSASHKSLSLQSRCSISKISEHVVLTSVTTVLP
humanized OX2 receptor, sequence (O43614 whole entry): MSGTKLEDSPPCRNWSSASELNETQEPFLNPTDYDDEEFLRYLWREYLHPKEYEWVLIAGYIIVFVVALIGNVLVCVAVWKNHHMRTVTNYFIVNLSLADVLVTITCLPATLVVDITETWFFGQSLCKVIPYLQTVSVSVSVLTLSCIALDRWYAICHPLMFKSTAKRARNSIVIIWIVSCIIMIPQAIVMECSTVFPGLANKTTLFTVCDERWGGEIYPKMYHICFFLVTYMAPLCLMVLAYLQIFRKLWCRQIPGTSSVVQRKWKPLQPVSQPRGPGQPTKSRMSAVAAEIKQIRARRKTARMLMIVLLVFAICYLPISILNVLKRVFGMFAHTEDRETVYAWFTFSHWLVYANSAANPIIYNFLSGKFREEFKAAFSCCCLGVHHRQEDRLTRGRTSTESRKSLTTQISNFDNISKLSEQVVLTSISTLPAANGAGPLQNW

The IC50 is the concentration that gives 50% inhibition. Turning to `Cc1ccc(-n2nccn2)c(C(=O)N2CCCN(c3nc4ccc(F)cc4c(=O)[nH]3)CC2)c1` [Example 1, 6-fluoro-2-(4-(5-methyl-2-(2H-1,2,3-triazol-2-yl)benzoyl)-1,4-diazepan-1-yl)quinazolin-4(3H)-one], the IC50 on humanized OX1 receptor was 322 nM; on humanized OX2 receptor, 300 nM.
One may read the AUC(0-inf) as total exposure, with the tail of the curve extrapolated. For orientation: AUC(0-t) means exposure summed from dosing to a finite time, without extrapolation to infinity. As a reminder, the Cmax is the maximum level reached in the sampled fluid or tissue. The Tmax is the time from dosing to the highest level. As to `Cc1ccc(-n2nccn2)c(C(=O)N2CCN(c3nc4ccc(F)cc4c(=O)[nH]3)CCC2C)c1` (centres unmarked) [Example 2, 6-fluoro-2-(5-methyl-4-(5-methyl-2-(2H-1,2,3-triazol-2-yl)benzoyl)-1,4-diazepan-1-yl)quinazolin-4(3H)-one], the 50% inhibitory concentration (IC50) at humanized OX1 receptor is 543 nM. Also, the IC50 on humanized OX2 receptor was determined as 169 nM. Also, in series [1] (setting [2]), the AUC(0-inf) was 866 ng·h/mL, the AUC(0-t) came to 865 ng·h/mL, the Cmax is 1400 ng/mL and the Tmax amounted to 4.98 min. For the same molecule, in series [1] (setting [2]), the clearance was found to be 19.2 mL/min/kg and the Vd worked out at 0.66 L/kg. In series [1] (oral administration, 2.5 mg/kg), the AUC(0-inf) amounted to 1780 ng·h/mL, the AUC(0-t) is 1770 ng·h/mL, the peak concentration (Cmax) came to 1940 ng/mL and the Tmax came out at 20 min. In series [1] (oral administration, 2.5 mg/kg), this molecule showed an F of 81.8%.
As for `Cc1ccc(-n2nccn2)c(C(=O)N2CCCN(c3nc4ccc(Cl)cc4c(=O)[nH]3)CC2)c1` [Example 5, 6-chloro-2-(4-(5-methyl-2-(2H-1,2,3-triazol-2-yl)benzoyl)-1,4-diazepan-1-yl)quinazolin-4(3H)-one], the values for the IC50 at humanized OX1 receptor and at humanized OX2 receptor were 276 nM and 263 nM, respectively.
On to `Cc1ccc(-n2nccn2)c(C(=O)N2CCN(c3nc4ccc(Cl)cc4c(=O)[nH]3)CCC2C)c1` (centres unmarked) [Example 6, 6-chloro-2-(5-methyl-4-(5-methyl-2-(2H-1,2,3-triazol-2-yl)benzoyl)-1,4-diazepan-1-yl)quinazolin-4(3H)-one], for which the IC50 on humanized OX1 receptor is 367 nM. Further, on humanized OX2 receptor, the IC50 turned out to be 221 nM. In series [1] (setting [2]), the area under the curve AUC(0-inf) is 1740 ng·h/mL, the AUC(0-t) came out at 1730 ng·h/mL, the Cmax came out at 3660 ng/mL and the Tmax was 4.98 min. Moreover, in series [1] (setting [2]), the clearance came out at 9.66 mL/min/kg and the Vd was 0.292 L/kg. Moreover, in series [1] (oral administration, 5 mg/kg), the AUC(0-inf) was 6840 ng·h/mL, the area under the curve AUC(0-t) amounted to 6800 ng·h/mL, the highest level (Cmax) was 5680 ng/mL and the Tmax is 20 min. In series [1] (oral administration, 5 mg/kg), this molecule returned an F of 79%.
As to `O=C(c1ccccc1-n1nccn1)N1CCCN(c2nc3ccc(Cl)cc3c(=O)[nH]2)CC1` [Example 7, 2-(4-(2-(2H-1,2,3-triazol-2-yl)benzoyl)-1,4-diazepan-1-yl)-6-chloroquinazolin-4(3H)-one], in series [1] (setting [2]), the AUC(0-inf) is 3700 ng·h/mL, the AUC(0-t) came out at 3450 ng·h/mL, the Cmax came out at 4080 ng/mL and the Tmax was 4.98 min. In series [1] (setting [2]), the clearance is 4.52 mL/min/kg and the Vd came out at 1.33 L/kg. In addition, in series [1] (oral administration, 5 mg/kg), the AUC(0-inf) came out at 15000 ng·h/mL, the exposure AUC(0-t) came to 14300 ng·h/mL, the concentration peaked (Cmax) at 13800 ng/mL and the time of peak concentration (Tmax) stood at 15 min. For the same molecule, the F in series [1] (oral administration, 5 mg/kg) is 83.1%.
